Consider one compound from patent US7547691B2, “[4-(Benzo[B]thiophen-2-yl) Pyrimidin-2-yl]-amine derivatives as IKK-beta inhibitors for the treatment of cancer and inflammatory diseases” (Eli Lilly and Company, priority 2005, dated 2009).

The target in test [1] is T1, IKKbeta (Homo sapiens, UniProt O14920).
T1 sequence (O14920 1-756): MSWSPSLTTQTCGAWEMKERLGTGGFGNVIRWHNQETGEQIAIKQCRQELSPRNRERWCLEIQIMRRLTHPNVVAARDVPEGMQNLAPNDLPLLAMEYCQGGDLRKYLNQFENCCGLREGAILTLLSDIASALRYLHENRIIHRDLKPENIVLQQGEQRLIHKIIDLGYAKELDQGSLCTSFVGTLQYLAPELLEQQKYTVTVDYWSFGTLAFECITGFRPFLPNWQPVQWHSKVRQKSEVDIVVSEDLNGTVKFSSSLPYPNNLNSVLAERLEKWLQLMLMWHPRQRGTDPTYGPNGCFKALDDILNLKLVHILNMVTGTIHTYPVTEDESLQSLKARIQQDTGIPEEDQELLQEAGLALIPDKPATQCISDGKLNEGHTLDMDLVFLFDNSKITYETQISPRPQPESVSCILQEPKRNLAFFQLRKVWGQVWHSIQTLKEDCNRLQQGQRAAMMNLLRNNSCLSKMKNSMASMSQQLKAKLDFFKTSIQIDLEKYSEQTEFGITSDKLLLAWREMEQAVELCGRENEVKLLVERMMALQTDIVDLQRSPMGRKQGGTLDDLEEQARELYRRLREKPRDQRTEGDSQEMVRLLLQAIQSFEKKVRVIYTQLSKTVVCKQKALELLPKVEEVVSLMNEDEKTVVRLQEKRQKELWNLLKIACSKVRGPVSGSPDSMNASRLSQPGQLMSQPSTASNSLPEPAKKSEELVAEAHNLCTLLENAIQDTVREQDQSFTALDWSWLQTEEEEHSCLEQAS
The test can be described thus: IKK-beta Kinase Assay. Type of test: biochemical. The settings on record: purified IKKβ 4 nM, 20 μM IKB peptide, 10 μM ATP, 90 minutes; absolute IC50; read-out: Enzyme Inhibition IC50. As for the experimental part:
The kinase activity of purified IKKβ is measured in vitro using a synthetic IKB peptide fragment (-[…]-) derived from IKB protein as a substrate. All reactions (30 μL) are started by the addition of the IKKb enzyme (final concentration: 4 nM) and then incubated at room temperature for 90 minutes in the reaction mix containing 20 μM IKB peptide, 10 μM ATP, 5 mM MgCl2, 50 mM Tris-HCl pH 7.5, 3 mM DTT, 4% DMSO, 1 mM Sodium Orthovandate, 0.5 mM β-glycerophosphate, 0.01% Triton X-100, 4 μCi γ-^33p-ATP/reaction. Reactions are terminated by addition of 30 μL 10% phosphoric acid, and the terminated reaction mix is filtered through a phosphocellulose membrane to remove unused γ-^33P-ATP. After four washes with 0.5% phosphoric acid, radio-labeled products bound to the filter are counted using a microbeta counter. All exemplified compounds are initially tested at 10 concentrations (20 μM down to 1 nM) using a 1:3 serial dilution scheme on the Beckman Tecan serial diluter. Calculation is done using a software package from IDBS (Activity Base) where an absolute IC50 value (non-linear regression) is calculated. Example 20 is specifically detailed below.

For test [2], the system named is HCT116 cells. The test can be described thus: Cell Viability Test, HCT116. It is filed as cell-based. Conditions: HCT-116; HCT116 (human colon cancer cell line); 1 ng/mL TNFα, 0.5% DMSO, 48 hours; read-out: Cell Viability Inhibition IC50. The protocol: (§1) RPMI 8226 cells (ATCC #CCL-155; human multiple myeloma cell line) are grown in RPMI 1640 medium (Gibco #11875-093) supplemented with 10% FBS (fetal bovine serum, Gibco #10082-147), 10 mM HEPES (Gibco #15630-080), 1 mM sodium pyruvate (Gibco #11360-070), and 4.5 mg/mL glucose. HCT116 cells (ATCC #CCL-247; human colon cancer cell line) are grown in McCoy's 5A modified medium (Gibco #16600-082) supplemented with 10% FBS (Gibco #10082-147). H460 cells (ATCC #HTB-177; human non-small cell lung cancer line) are grown in RPMI 1640 (Gibco #11875-093) supplemented with 10% FBS (Gibco #10082-147). […]
(§2) For compound testing, various cancer cells are seeded at 5,000 cells/well in 100 μl corresponding media specified above for each cell line in 96-well plates one day prior to treatment. […] Cell death in each well is determined by the addition of 15 μL of the One Solution Reagent (The CellTiter 96® AQueous One Solution Reagent, Promega #G3580). After 1-2 hours of incubation at 37° C., optical densities at 490 nm are measured with a microplate reader (Molecular Devices SpectraMax). Inhibition of cell viability is determined by comparison to the control cells treated in the absence of a test compound.

Test [3] concerns U87MG cells. The test is described as follows: Cell Viability Test, U87MG. It is filed as cell-based. Conditions: U-87 MG; U87MG (human glioblastoma cell line); 1 ng/mL TNFα, 0.5% DMSO, 48 hours; read-out: Cell Viability Inhibition IC50. As for the experimental part:
as §1, §2

In test [4] the test system is A2780 cells. The test is described as follows: Cell Viability Test, A2780. Type of test: cell-based. The settings on record: A2780 (human ovarian carcinoma); 1 ng/mL TNFα, 0.5% DMSO, 48 hours; read-out: Cell Viability Inhibition IC50. As for the experimental part: as §1, §2
Test [5] has as its system RPMI 8226 cells. The test can be described thus: Cell Viability Test, RPMI-8226. Type of test: cell-based. The settings on record: RPMI-8226 (human multiple myeloma cell line); 1 ng/mL TNFα, 0.5% DMSO, 48 hours; read-out: Cell Viability Inhibition IC50. The protocol: as §1, §2
In test [6] the test system is H460 cells. The test can be described thus: Cell Viability Test, H460. It is filed as cell-based. The settings on record: NCI-H460; H460 (human non-small cell lung cancer line); 1 ng/mL TNFα, 0.5% DMSO, 0.5 μg/mL cycloheximide, 48 hours; read-out: Cell Viability Inhibition IC50. The protocol: as §1, §2

Where a name gives a salt, the structure may show the parent alone.

Turning to `CN1CCN(CCCNc2ncc(Cl)c(-c3cc4c(C(=O)NC5CC5)cccc4s3)n2)CC1` [Example 20, 2-{5-Chloro-2-[3-(4-methylpiperazin-1-yl)-propylamino]-pyrimidin-4-yl}-benzo[b]thiophene-4-carboxylic acid cyclopropylamide tri-hydrochloride], the concentration for half-maximal inhibition (IC50) (as a rule, the concentration that inhibits the measured activity by half) is 0.046 µM in test [1]; 19.2 µM in test [2]; 22.3 µM in test [3]; 11.7 µM in test [4]; 2.2 µM in test [5]; 9 µM in test [6].
